Experimental data from PubChem BioAssay (NCI).
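Exposure lasted 48 hours, with cells grown in 96-well plates and compounds tested at five concentrations. At the GI50, growth is halved. TGI denotes the concentration required for complete inhibition of growth.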

Tests used:
Experiment in all cases: NCI-60 cell line screen, 48 h
NCI-H226 lung = tested on: NCI-H226 lung
NCI-H460 lung = tested on: NCI-H460 lung
NCI-H522 lung = tested on: NCI-H522 lung
NCI/ADR-RES ovarian = tested on: NCI/ADR-RES ovarian
OVCAR-3 ovarian = tested on: OVCAR-3 ovarian
OVCAR-4 ovarian = tested on: OVCAR-4 ovarian
OVCAR-5 ovarian = tested on: OVCAR-5 ovarian
OVCAR-8 ovarian = tested on: OVCAR-8 ovarian
PC-3 prostate = tested on: PC-3 prostate
RPMI-8226 leukemia = tested on: RPMI-8226 leukemia
RXF 393 renal = tested on: RXF 393 renal
SF-268 CNS = tested on: SF-268 CNS
SF-295 CNS = tested on: SF-295 CNS
SF-539 CNS = tested on: SF-539 CNS
SK-MEL-2 melanoma = tested on: SK-MEL-2 melanoma
SK-MEL-28 melanoma = tested on: SK-MEL-28 melanoma
SK-MEL-5 melanoma = tested on: SK-MEL-5 melanoma
SK-OV-3 ovarian = tested on: SK-OV-3 ovarian
SN12C renal = tested on: SN12C renal
SNB-19 CNS = tested on: SNB-19 CNS
SNB-75 CNS = tested on: SNB-75 CNS
SR leukemia = tested on: SR leukemia
SW-620 colon = tested on: SW-620 colon
T-47D breast = tested on: T-47D breast
TK-10 renal = tested on: TK-10 renal
U251 CNS = tested on: U251 CNS
UACC-257 melanoma = tested on: UACC-257 melanoma
UACC-62 melanoma = tested on: UACC-62 melanoma
UO-31 renal = tested on: UO-31 renal

Structure (SMILES): NS(=O)(=O)c1cccc(Nc2nc(SCC(=O)c3ccc([N+](=O)[O-])cc3)nc3ccccc23)c1
- TGI (NCI-H226 lung): 70.8 µM
- GI50 (NCI-H460 lung): 26.2 µM
- TGI (NCI-H460 lung): > 100 µM
- GI50 (NCI-H522 lung): 20.1 µM
- TGI (NCI-H522 lung): 89.6 µM
- GI50 (NCI/ADR-RES ovarian): > 100 µM
- TGI (NCI/ADR-RES ovarian): > 100 µM
- GI50 (OVCAR-3 ovarian): 19.6 µM
- TGI (OVCAR-3 ovarian): 72.9 µM
- GI50 (OVCAR-4 ovarian): 26.6 µM
- TGI (OVCAR-4 ovarian): > 100 µM
- GI50 (OVCAR-5 ovarian): > 100 µM
- TGI (OVCAR-5 ovarian): > 100 µM
- GI50 (OVCAR-8 ovarian): 25.3 µM
- TGI (OVCAR-8 ovarian): > 100 µM
- GI50 (PC-3 prostate): 20.2 µM
- TGI (PC-3 prostate): > 100 µM
- GI50 (RPMI-8226 leukemia): 16.1 µM
- TGI (RPMI-8226 leukemia): 83 µM
- GI50 (RXF 393 renal): 23.2 µM
- TGI (RXF 393 renal): > 100 µM
- GI50 (SF-268 CNS): 43.7 µM
- TGI (SF-268 CNS): > 100 µM
- GI50 (SF-295 CNS): 38.3 µM
- TGI (SF-295 CNS): > 100 µM
- GI50 (SF-539 CNS): 31.3 µM
- TGI (SF-539 CNS): > 100 µM
- GI50 (SK-MEL-2 melanoma): 14.4 µM
- TGI (SK-MEL-2 melanoma): 44 µM
- GI50 (SK-MEL-28 melanoma): 34.9 µM
- TGI (SK-MEL-28 melanoma): > 100 µM
- GI50 (SK-MEL-5 melanoma): 22.3 µM
- TGI (SK-MEL-5 melanoma): 88.1 µM
- GI50 (SK-OV-3 ovarian): 63.2 µM
- TGI (SK-OV-3 ovarian): > 100 µM
- GI50 (SN12C renal): 40.9 µM
- TGI (SN12C renal): > 100 µM
- GI50 (SNB-19 CNS): > 100 µM
- TGI (SNB-19 CNS): > 100 µM
- GI50 (SNB-75 CNS): > 100 µM
- TGI (SNB-75 CNS): > 100 µM
- GI50 (SR leukemia): 21.1 µM
- TGI (SR leukemia): > 100 µM
- GI50 (SW-620 colon): 64.2 µM
- TGI (SW-620 colon): > 100 µM
- GI50 (T-47D breast): 9.95 µM
- TGI (T-47D breast): 65.4 µM
- GI50 (TK-10 renal): 54.5 µM
- TGI (TK-10 renal): > 100 µM
- GI50 (U251 CNS): 58.2 µM
- TGI (U251 CNS): > 100 µM
- GI50 (UACC-257 melanoma): 30.1 µM
- TGI (UACC-257 melanoma): > 100 µM
- GI50 (UACC-62 melanoma): 16.3 µM
- TGI (UACC-62 melanoma): 37.3 µM
- GI50 (UO-31 renal): 32.6 µM
- TGI (UO-31 renal): > 100 µM
